Reference: article PMC5829162, “Rational Design, Synthesis and Biological Evaluation of Pyrimidine-4,6-diamine derivatives as Type-II inhibitors of FLT3 Selective Against c-KIT” (Scientific Reports, 2018)

Assays:
[1] = molecular target: T1, FLT3 kinase (Homo sapiens, UniProt P36888); experiment: Biochemical enzyme inhibition assay (microfluidics, Caliper EZ Reader II), FLT3; conditions: for IC50: in vitro kinase assay, 60 min pre-incubation, ATP 190 µM, three independent experiments, read-out: FLT3 IC50 (nM) ± SD; for LE: ligand efficiency for FLT3 inhibition
T1 construct: purchased Invitrogen
T1 sequence (P36888 27-993): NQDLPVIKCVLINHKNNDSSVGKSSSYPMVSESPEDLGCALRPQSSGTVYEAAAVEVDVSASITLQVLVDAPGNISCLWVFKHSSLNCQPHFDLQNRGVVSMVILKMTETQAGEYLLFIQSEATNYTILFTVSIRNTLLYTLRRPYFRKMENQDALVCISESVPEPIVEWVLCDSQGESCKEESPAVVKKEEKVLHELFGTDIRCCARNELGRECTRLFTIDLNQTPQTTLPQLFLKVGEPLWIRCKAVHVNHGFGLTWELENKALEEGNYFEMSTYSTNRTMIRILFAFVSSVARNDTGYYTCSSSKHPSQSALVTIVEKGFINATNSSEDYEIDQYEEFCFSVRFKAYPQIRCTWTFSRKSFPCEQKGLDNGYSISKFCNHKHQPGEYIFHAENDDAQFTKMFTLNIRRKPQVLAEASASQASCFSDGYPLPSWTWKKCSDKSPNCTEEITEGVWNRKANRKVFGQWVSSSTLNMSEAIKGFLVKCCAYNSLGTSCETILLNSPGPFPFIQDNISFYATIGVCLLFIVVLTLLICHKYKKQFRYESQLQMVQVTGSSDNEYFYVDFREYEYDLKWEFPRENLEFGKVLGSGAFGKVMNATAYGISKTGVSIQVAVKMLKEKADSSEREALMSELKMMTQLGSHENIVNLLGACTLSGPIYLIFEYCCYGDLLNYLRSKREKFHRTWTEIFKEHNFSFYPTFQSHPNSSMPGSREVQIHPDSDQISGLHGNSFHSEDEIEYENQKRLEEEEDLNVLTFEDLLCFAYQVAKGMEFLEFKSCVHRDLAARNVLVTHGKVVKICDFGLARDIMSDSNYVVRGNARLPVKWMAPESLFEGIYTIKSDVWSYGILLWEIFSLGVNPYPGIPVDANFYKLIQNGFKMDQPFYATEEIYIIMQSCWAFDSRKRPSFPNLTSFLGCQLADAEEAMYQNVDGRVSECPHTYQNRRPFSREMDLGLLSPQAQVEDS
Method: Kinase activity was measured in a microfluidics assay that monitors the separation of a phosphorylated product from substrate[31],[32]. […] After, 1 μL was transferred into a 384-well polypropylene assay plate (Greiner, Frickenhausen, Germany). The FLT3 enzyme (Invitrogen™, Grand Island, USA) was diluted in kinase buffer to a concentration of 2 nM and 5 µL of the enzyme mixture was transferred to the assay plate. The inhibitors/FLT3 enzyme were incubated for 60 minutes with minor shaking. […] For positive control, no inhibitor was added. For negative control, no enzyme was added. For running control, quizartinib was utilized. The plate was run until 10–20% conversion based on the positive control wells. The following separation conditions were utilized: upstream voltage −500V; downstream voltage, −1900V; chip pressure −0.8. Percent inhibition was measured for each well comparing starting peptide to phosphorylated product peaks relative to the baseline. Dose response curves, spanning the IC50 dose, were generated in GraphPad Prisim 6 and fit to an exponential one-phase decay line and IC50 values were obtained from the half-life value of the curve. IC50 values were generated in duplicate and error was calculated from the standard deviation between values.
S10. Biochemical Inhibition Assay:1,2 Kinase activity was measured in a microfluidics assay that monitors the separation of a phosphorylated product from substrate. The assay was run using a 12-sipper chip on a Caliper EZ Reader II (PerkinElmer®, Walthman, USA) with separation […]
Walthman, USA]). In 96-well polypropylene plates (Greiner, Frickenhausen, Germany) […]
After, 1 μL was transferred into a 384-well polypropylene assay plate (Greiner, Frickenhausen, Germany). The FLT3 enzyme (Invitrogen™, Grand Island, USA) was diluted in kinase buffer to a concentration of 2 nM and 5 µL of the enzyme mixture was transferred to the assay plate. The inhibitors/FLT3 enzyme were incubated for 60 minutes with minor shaking. A substrate mix was prepared containing ATP (Ambresco®, Solon, USA) and […]
USA) dissolved in kinase buffer, and 5 µL of the substrate mix was added to the assay plate.
For positive control, no inhibitor was added. For negative control, no enzyme was added. For running control, quizartinib was utilized. The plate was run until 10-20% conversion based on the positive control wells. The following separation conditions were utilized: upstream voltage -500V; downstream voltage, -1900V; chip pressure - 0.8. Percent inhibition was measured for each well comparing starting peptide to phosphorylated product peaks relative to the baseline. Dose response curves, spanning the IC50 dose, were generated in GraphPad Prisim 6 and fit to an exponential one-phase decay line and IC50 values were obtained from the half-life value of the curve. IC50 values were generated in duplicate and error was calculated from the standard deviation between values. […]

Compound | IC50 [1] [nM] | LE [1] | melting point [°C] | fold less active than 13a on FLT3 ([1]; enzymatic FLT3 IC50 compared with 13a) [fold]
CN1CCN(c2cc(Nc3ccc(CC(=O)NC4CC4)cc3)ncn2)CC1 [13ah, 2-(4-(6-(4-Methylpiperazin-1-yl)pyrimidin-4-ylamino)phenyl)-N-cyclopropyl acetamide] | 13560 ± 102 | 0.25 |  | 
O=C(Cc1ccc(Nc2cc(NCCCN3CCCCC3)ncn2)cc1)Nc1ccc(OC(F)(F)F)cc1 [13y, 2-(4-(6-(3-(Piperidin-1-yl)propylamino)pyrimidin-4-ylamino)phenyl)-N-(4-(trifluoromethoxy)phenyl)acetamide] | 6460 ± 251 | 0.19 |  | 
CN(C)c1cc(Oc2ccc(CC(=O)Nc3cc(C(C)(C)C)on3)cc2)ncn1 [13q, 2-(4-(6-(Dimethylamino)pyrimidin-4-yloxy)phenyl)-N-(5-tert-butylisoxazol-3-yl)acetamide] | 8760 ± 127 | 0.24 | 170 to 172 | 
CC(C)(C)c1cc(NC(=O)Nc2ccc(Nc3cc(Nc4ccc(S(C)(=O)=O)cc4)ncn3)cc2)no1 [24c, 1-(4-(6-(4-(Methylsulfonyl)phenylamino)pyrimidin-4-ylamino)phenyl)-3-(5-tert-butylisoxazol-3-yl)urea] | 29 ± 1.9 | 0.28 | 245 to 247 | 
Cn1nc(C(C)(C)C)cc1NC(=O)Cc1ccc(Oc2cc(Nc3ccc(S(C)(=O)=O)cc3)ncn2)cc1 [13e, 2-(4-(6-(4-(Methylsulfonyl)phenylamino)pyrimidin-4-yloxy)phenyl)-N-(3-tert-butyl-1-methyl-1H-pyrazol-5-yl)acetamide] | 268 ± 25 | 0.24 |  | 
CS(=O)(=O)c1ccc(Nc2cc(Nc3ccc(CC(=O)NC4CC4)cc3)ncn2)cc1 [13ae, 2-(4-(6-(4-(Methylsulfonyl)phenylamino)pyrimidin-4-ylamino)phenyl)-N-cyclopropylacetamide] | 5550 ± 169 | 0.23 | 110 to 112 | 
N-(4-Fluorobenzyl)-2-(4-(6-(3-(pyrrolidin-1-yl)propylamino)pyrimidin-4-yloxy)phenyl)acetamide [13w] | 4560 ± 330 | 0.21 |  | 
CC(C)(C)c1cc(NC(=O)Cc2ccc(Nc3cc(N4CCOCC4)ncn3)cc2)no1 [13p, 2-(4-(6-Morpholinopyrimidin-4-ylamino)phenyl)-N-(5-tert-butylisoxazol-3-yl)acetamide] | 395 ± 78 | 0.28 | 218 to 220 | 
Cc1ccc(-n2nc(C(C)(C)C)cc2NC(=O)Cc2ccc(Nc3cc(Nc4ccc(S(C)(=O)=O)cc4)ncn3)cc2)cc1 [13h, 2-(4-(6-(4-(Methylsulfonyl)phenylamino)pyrimidin-4-ylamino)phenyl)-N-(3-tert-butyl-1-p-tolyl-1H-pyrazol-5-yl)acetamide] | 4840 ± 170 | 0.16 | 155 to 157 | 
CN1CCN(c2cc(Nc3ccc(CC(=O)Nc4cc(C(C)(C)C)nn4-c4ccc(Br)cc4)cc3)ncn2)CC1 [13j, 2-(4-(6-(4-Methylpiperazin-1-yl)pyrimidin-4-ylamino)phenyl)-N-(3-tert-butyl-1-(4-bromophenyl)-1H-pyrazol-5-yl)acetamide] | 6020 ± 122 | 0.18 | 110 to 112 | 
O=C(Cc1ccc(Nc2cc(Nc3cccc(C(F)(F)F)c3)ncn2)cc1)NC1CC1 [13af, 2-(4-(6-(3-(Trifluoromethyl)phenylamino)pyrimidin-4-ylamino)phenyl)-N-cyclopropylacetamide] | 8060 ± 274 | 0.23 |  | 
O=C(Cc1ccc(Nc2cc(NCCCN3CCCC3)ncn2)cc1)Nc1cccc(C(F)(F)F)c1 [13ab, 2-(4-(6-(3-(Pyrrolidin-1-yl)propylamino)pyrimidin-4-ylamino)phenyl)-N-(3-(trifluoromethyl)phenyl)acetamide] | 9170 ± 236 | 0.19 |  | 
CC(C)(C)c1cc(NC(=O)Cc2ccc(Nc3cc(Nc4cccc(C(F)(F)F)c4)ncn3)cc2)no1 [13m, 2-(4-(6-(3-(Trifluoromethyl)phenylamino)pyrimidin-4-ylamino)phenyl)-N-(5-tert-butylisoxazol-3-yl)acetamide] | 1180 ± 527 | 0.22 | 254 to 256 | 
COc1ccc(CNC(=O)Cc2ccc(Oc3cc(NC4CCN(Cc5ccccc5)CC4)ncn3)cc2)c(OC)c1 [13ak, N-(2,4-Dimethoxybenzyl)-2-(4-(6-(1-benzylpiperidin-4-ylamino)pyrimidin-4-yloxy)phenyl)acetamide] | 13600 ± 494 | 0.16 | 102 to 104 | 
O=C(Cc1ccc(Nc2cc(N3CCOCC3)ncn2)cc1)NC1CC1 [13ai, 2-(4-(6-Morpholinopyrimidin-4-ylamino)phenyl)-N-cyclopropylacetamide] | 15100 ± 168 | 0.25 | 110 to 112 | 
CC(C)(C)c1cc(NC(=O)Cc2ccc(Nc3cc(Nc4ccc(S(C)(=O)=O)cc4)ncn3)cc2)n(-c2ccc(F)cc2)n1 [13g, 2-(4-(6-(4-(Methylsulfonyl)phenylamino)pyrimidin-4-ylamino)phenyl)-N-(3-tert-butyl-1-(4-fluorophenyl)-1H-pyrazol-5-yl)acetamide] | 3230 ± 556 | 0.17 | 168 to 170 | 
CNc1cc(Nc2ccc(CC(=O)Nc3ccc(OC(F)(F)F)cc3)cc2)ncn1 [13z, 2-(4-(6-(Methylamino)pyrimidin-4-ylamino)phenyl)-N-(4-(trifluoromethoxy)phenyl) acetamide] | 7370 ± 333 | 0.23 | 220 to 222 | 
Cn1nc(C(C)(C)C)cc1NC(=O)Cc1ccc(Nc2cccc(Nc3ccc(S(C)(=O)=O)cc3)n2)cc1 [compound 18, 2-(4-(6-(4-(Methylsulfonyl)phenylamino)pyridin-2-ylamino)phenyl)-N-(3-tert-butyl-1-methyl-1H-pyrazol-5-yl)acetamide] | 5720 |  |  | > 100
Cn1nc(C(C)(C)C)cc1NC(=O)Cc1ccc(Nc2cc(N3CCOCC3)ncn2)cc1 [13i, 2-(4-(6-Morpholinopyrimidin-4-ylamino)phenyl)-N-(3-tert-butyl-1-methyl-1H-pyrazol-5-yl)acetamide] | 428 ± 99 | 0.27 |  | 
Cn1nc(C(C)(C)C)cc1NC(=O)Cc1ccc(Nc2cc(NCCCN3CCCCC3)ncn2)cc1 [13c, 2-(4-(6-(3-(Piperidin-1-yl)propylamino)pyrimidin-4-ylamino)phenyl)-N-(3-tert-butyl-1-methyl-1H-pyrazol-5-yl)acetamide] | 129.3 ± 0.9 | 0.26 |  | 
CS(=O)(=O)c1ccc(Nc2cc(Nc3ccc(CC(=O)Nc4cccc(F)c4)cc3)ncn2)cc1 [13ac, 2-(4-(6-(4-(Methylsulfonyl)phenylamino)pyrimidin-4-ylamino)phenyl)-N-(3-fluorophenyl)acetamide] | 11710 ± 106 | 0.19 |  | 
